Assay results taken from patent US11951094B2, “TLR2 modulator compounds, pharmaceutical compositions and uses thereof” (Axial Therapeutics, Inc., priority 2020, dated 2024).
Counter-ions that a name gives are not always drawn.

Each compound was assayed against TLR2 (Homo sapiens, UniProt O60603) (assay: TLR2 agonist screening assay, HEK-Blue TLR2 reporter cell line (NF-kB-driven SEAP, absorbance at 600 nm)). Conditions: HEK-Blue TLR2 reporter cells, agonist mode; average of all runs (Table 3).
Type: cell-based
Set-up: host or cells: HEK-293 (HEK-Blue TLR2 reporter cell line)
Procedure, shortened: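 Read-out: SEAP colour change, A600, after overnight agonist exposure. Cells: HEK-293 overexpressing TLR2, NF-kB-SEAP reporter, ~40,000/well, plated 16-24 h prior.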

TLR2, sequence (O60603 21-784): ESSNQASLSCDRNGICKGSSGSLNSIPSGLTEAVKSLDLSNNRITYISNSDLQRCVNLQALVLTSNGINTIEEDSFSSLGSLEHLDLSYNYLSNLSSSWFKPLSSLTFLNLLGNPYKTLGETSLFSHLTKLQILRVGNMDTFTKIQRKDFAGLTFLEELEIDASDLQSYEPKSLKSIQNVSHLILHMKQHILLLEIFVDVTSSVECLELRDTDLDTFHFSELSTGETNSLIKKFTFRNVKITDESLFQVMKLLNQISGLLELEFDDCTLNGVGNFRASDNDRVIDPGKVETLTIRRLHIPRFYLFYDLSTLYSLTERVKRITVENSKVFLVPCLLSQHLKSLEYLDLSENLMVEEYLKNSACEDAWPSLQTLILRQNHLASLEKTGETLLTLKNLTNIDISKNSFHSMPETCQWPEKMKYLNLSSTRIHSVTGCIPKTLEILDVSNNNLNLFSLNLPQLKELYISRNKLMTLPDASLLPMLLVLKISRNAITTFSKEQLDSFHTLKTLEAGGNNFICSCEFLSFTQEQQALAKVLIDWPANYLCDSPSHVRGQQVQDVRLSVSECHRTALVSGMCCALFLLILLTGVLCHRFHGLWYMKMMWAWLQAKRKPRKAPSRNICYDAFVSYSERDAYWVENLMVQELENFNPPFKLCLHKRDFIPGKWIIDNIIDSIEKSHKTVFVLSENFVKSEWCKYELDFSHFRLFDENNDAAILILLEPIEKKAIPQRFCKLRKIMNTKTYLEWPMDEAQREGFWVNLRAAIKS

SMILES | EC50
CCCCCCCCCCCCCCNC(=O)[C@H]1CCN(C(=O)c2ccc(C(=O)N3C[C@@H](C(=O)N[C@H]4C[C@@H]4c4ccccc4)[C@H](C(=O)N[C@H]4C[C@@H]4c4ccccc4)C3)cc2)C1 [Compound 004] | 0.1 to 50 nM
CCCCCCCC(=O)N1CCN(C(=O)c2ccc(C(=O)N3C[C@@H](C(=O)N[C@H]4C[C@@H]4c4ccccc4)[C@H](C(=O)N[C@H]4C[C@@H]4c4ccccc4)C3)cc2)CC1C(=O)NCCCCCC (stereo partly drawn) [Compound 019, (3S,4S)-1-(4-(3-(hexylcarbamoyl)-4-octanoylpiperazine-1-carbonyl)benzoyl)-N3,N4-bis((1S,2R)-2-phenylcyclopropyl)pyrrolidine-3,4-dicarboxamide] | 0.1 to 50 nM
CCCCCCCCCCCCCCNC(=O)[C@@H]1CN(C(=O)c2ccc(C(=O)N3C[C@@H](C(=O)N[C@H]4C[C@@H]4c4ccccc4)[C@H](C(=O)N[C@H]4C[C@@H]4c4ccccc4)C3)cc2)C[C@H]1O (racemic) [Compound 045, (3S,4S)-1-(4-((3S*,4R*)-3-hydroxy-4-(tetradecylcarbamoyl)pyrrolidine-1-carbonyl)benzoyl)-N3,N4-bis((1S,2R)-2-phenylcyclopropyl)pyrrolidine-3,4-dicarboxamide] | 351 to 1000 nM
O=C(NC1CCCCCCC1)[C@H]1CCN(C(=O)c2ccc(C(=O)N3C[C@@H](C(=O)N[C@H]4C[C@@H]4c4ccccc4)[C@H](C(=O)N[C@H]4C[C@@H]4c4ccccc4)C3)cc2)C1 [Compound 003] | > 1000 nM
CCCCCCNC(=O)[C@H](CCNC(=O)c1ccc(C(=O)N2C[C@@H](C(=O)N[C@H]3C[C@@H]3c3ccccc3)[C@H](C(=O)N[C@H]3C[C@@H]3c3ccccc3)C2)cc1)NC(=O)CCCCCC [Compound 017] | > 1000 nM
CCCCCCNC(=O)C1CN(C(=O)c2ccc(C(=O)N3C[C@@H](C(=O)N[C@H]4C[C@@H]4c4ccccc4)[C@H](C(=O)N[C@H]4C[C@@H]4c4ccccc4)C3)cc2)CCN1 (stereo partly drawn) [Compound 042, (3S,4S)-1-(4-(3-(hexylcarbamoyl)piperazine-1-carbonyl)benzoyl)-N3,N4-bis((1S,2R)-2-phenylcyclopropyl)pyrrolidine-3,4-dicarboxamide formate] | 351 to 1000 nM
CCCCCCCC(=O)N1CCN(C(=O)c2ccc(C(=O)N3C[C@@H](C(=O)N[C@H]4C[C@@H]4c4ccccc4)[C@H](C(=O)N[C@H]4C[C@@H]4c4ccccc4)C3)cc2)CC1C(=O)N[C@H]1C[C@@H]1c1ccccc1 (some centres unmarked) [Compound 040] | > 1000 nM

Same assay, conditions: HEK-Blue TLR2 reporter cells, agonist mode; average of all runs (Table 4)

SMILES | EC50
CCCCCCCC(=O)N1CCCN(C(=O)c2ccc(C(=O)N3C[C@@H](C(=O)N[C@H]4C[C@@H]4c4ccccc4)[C@H](C(=O)N[C@H]4C[C@@H]4c4ccccc4)C3)cc2)C[C@H]1C(=O)NCCCCCC (single isomer, unassigned) [Compound 145] | > 1000 nM
CCCCCCCCCCCCCCCN[C@H]1CN(C(=O)c2ccc(C(=O)N3C[C@@H](C(=O)N[C@H]4C[C@@H]4c4ccccc4)[C@H](C(=O)N[C@H]4C[C@@H]4c4ccccc4)C3)cc2)C[C@@H]1O [Compound 087, (3S,4S)-1-(4-((3S,4S)-3-hydroxy-4-(pentadecylamino)pyrrolidine-1-carbonyl)benzoyl)-N3,N4-bis((1S,2R)-2-phenylcyclopropyl)pyrrolidine-3,4-dicarboxamide] | > 1000 nM
CCCCCCCCCCCCCCNC(=O)[C@@H]1CN(C(=O)c2ccc(C(=O)N3C[C@@H](C(=O)N[C@H]4C[C@@H]4c4ccccc4)[C@H](C(=O)N[C@H]4C[C@@H]4c4ccccc4)C3)cc2)C[C@@H]1O (single isomer, unassigned) [Compound 103, (3S,4S)-1-(4-((3R*,4R*)-3-hydroxy-4-(tetradecylcarbamoyl)pyrrolidine-1-carbonyl)benzoyl)-N3,N4-bis((1S,2R)-2-phenylcyclopropyl) pyrrolidine-3,4-dicarboxamide] | 351 to 1000 nM
CCCCCCCO[C@H]1CN(C(=O)c2ccc(C(=O)N3C[C@@H](C(=O)N[C@H]4C[C@@H]4c4ccccc4)[C@H](C(=O)N[C@H]4C[C@@H]4c4ccccc4)C3)cc2)C[C@@H]1NC(=O)NCCCCC [Compound 156, (3S,4S)-1-(4-((3S,4S)-3-(heptyloxy)-4-(3-pentylureido)pyrrolidine-1-carbonyl)benzoyl)-N3,N4-bis((1S,2R)-2-phenylcyclopropyl)pyrrolidine-3,4-dicarboxamide] | 51 to 350 nM
CCCCCCCCCCCCCCNC(=O)[C@@H]1CN(C(=O)c2ccc(C(=O)N3C[C@@H](C(=O)N[C@H]4C[C@@H]4c4ccccc4)[C@H](C(=O)N[C@H]4C[C@@H]4c4ccccc4)C3)cc2)C[C@H]1NC [Compound 098, (3S,4S)-1-(4-((3S,4R)-3-(methylamino)-4-(tetradecylcarbamoyl)pyrrolidine-1-carbonyl)benzoyl)-N3,N4-bis((1S,2R)-2-phenylcyclopropyl)pyrrolidine-3,4-dicarboxamide] | 0.1 to 50 nM
CCCCCCCCCCCCCCC(=O)N1CCC[C@@H](NC(=O)c2ccc(C(=O)N3C[C@@H](C(=O)N[C@H]4C[C@@H]4c4ccccc4)[C@H](C(=O)N[C@H]4C[C@@H]4c4ccccc4)C3)cc2)C1 [Compound 153, (3S,4S)-1-(4-(((R)-1-pentadecanoylpiperidin-3-yl)carbamoyl)benzoyl)-N3,N4-bis((1S,2R)-2-phenylcyclopropyl)pyrrolidine-3,4-dicarboxamide] | > 1000 nM
CCCCCCCCCCCCCCNC(=O)[C@@H]1CN(C(=O)c2cccc(C(=O)N3C[C@@H](C(=O)N[C@H]4C[C@@H]4c4ccccc4)[C@H](C(=O)N[C@H]4C[C@@H]4c4ccccc4)C3)c2)CCN1C(C)=O [Compound 164, (3S,4S)-1-(3-((S)-4-acetyl-3-(tetradecylcarbamoyl)piperazine-1-carbonyl)benzoyl)-N3,N4-bis ((1S,2R)-2-phenylcyclopropyl) pyrrolidine-3,4-dicarboxamide] | > 1000 nM
CCCCCCCCCC(=O)N[C@@H](Cc1nc(-c2ccc(C(=O)N3C[C@@H](C(=O)N[C@H]4C[C@@H]4c4ccccc4)[C@H](C(=O)N[C@H]4C[C@@H]4c4ccccc4)C3)cc2)no1)C(=O)NCCCCCC [Compound 249, (3S,4S)-1-(4-(5-((S)-2-decanamido-3-(hexylamino)-3-oxopropyl)-1,2,4-oxadiazol-3-yl)benzoyl)-N3,N4-bis((1S,2R)-2-phenylcyclopropyl)pyrrolidine-3,4-dicarboxamide] | > 1000 nM
CCCCCCCCCCCCCCC(=O)N1CCC[C@H](NC(=O)c2ccc(C(=O)N3C[C@@H](C(=O)N[C@H]4C[C@@H]4c4ccccc4)[C@H](C(=O)N[C@H]4C[C@@H]4c4ccccc4)C3)cc2)C1 [Compound 125, (3S,4S)-1-(4-(((S)-1-pentadecanoylpiperidin-3-yl)carbamoyl)benzoyl)-N3,N4-bis((1S,2R)-2-phenylcyclopropyl)pyrrolidine-3,4-dicarboxamide] | > 1000 nM

Second part, the compound after the results:

EC50 | SMILES
> 1000 nM | CCCCCCCCCCCCCNC(=O)N[C@H]1CN(c2nc3cc(C(=O)N4C[C@@H](C(=O)N[C@H]5C[C@@H]5c5ccccc5)[C@H](C(=O)N[C@H]5C[C@@H]5c5ccccc5)C4)ccc3o2)C[C@@H]1OC [Compound 245, (3S,4S)-1-(2-((3S,4S)-3-methoxy-4-(3-tridecylureido)pyrrolidin-1-yl)benzo[d]oxazole-5-carbonyl)-N3,N4-bis((1S,2R)-2-phenylcyclopropyl)pyrrolidine-3,4-dicarboxamide]
> 1000 nM | CCCCCCCCCCCCCNC(=O)N[C@H]1CN(c2nnc(-c3ccc(C(=O)N4C[C@@H](C(=O)N[C@H]5C[C@@H]5c5ccccc5)[C@H](C(=O)N[C@H]5C[C@@H]5c5ccccc5)C4)cc3)[nH]2)C[C@@H]1OC [Compound 237, (3S,4S)-1-(4-(5-((3S,4S)-3-methoxy-4-(3-tridecylureido)pyrrolidin-1-yl)-4H-1,2,4-triazol-3-yl)benzoyl)-N3,N4-bis((1S,2R)-2-phenylcyclopropyl)pyrrolidine-3,4-dicarboxamide]
> 1000 nM | CCCCCNC(=O)[C@@H]1CN(C(=O)c2ccc(C(=O)N3C[C@@H](C(=O)N[C@H]4C[C@@H]4c4ccccc4)[C@H](C(=O)N[C@H]4C[C@@H]4c4ccccc4)C3)cc2)CCN1C(C)=O [Compound 264, (3S,4S)-1-(4-((S)-4-acetyl-3-(pentylcarbamoyl)piperazine-1-carbonyl)benzoyl)-N3,N4-bis((1S,2R)-2-phenylcyclopropyl) pyrrolidine-3,4-dicarboxamide]
0.1 to 50 nM | CCCCCCCCCCCCCNC(=O)N[C@@H]1CN(C(=O)c2ccc(C(=O)N3C[C@@H](C(=O)N[C@H]4C[C@@H]4c4ccccc4)[C@H](C(=O)N[C@H]4C[C@@H]4c4ccccc4)C3)cc2)C[C@@H]1OC [Compound 208, (3S,4S)-1-(4-((3S,4R)-3-methoxy-4-(3-tridecylureido)pyrrolidine-1-carbonyl)benzoyl)-N3,N4-bis((1S,2R)-2-phenylcyclopropyl)pyrrolidine-3,4-dicarboxamide]
> 1000 nM | CCCCCCCC(=O)N1CCCN(S(=O)(=O)c2cccc(C(=O)N3C[C@@H](C(=O)N[C@H]4C[C@@H]4c4ccccc4)[C@H](C(=O)N[C@H]4C[C@@H]4c4ccccc4)C3)c2)C[C@H]1C(=O)NCCCCCC (single isomer, unassigned) [Compound 200]
51 to 350 nM | CCCCCCCCCCCCCCNC(=O)[C@@H]1CN(S(=O)(=O)c2cccc(C(=O)N3C[C@@H](C(=O)N[C@H]4C[C@@H]4c4ccccc4)[C@H](C(=O)N[C@H]4C[C@@H]4c4ccccc4)C3)c2)CCN1C(C)=O [Compound 193, (3S,4S)-1-(3-(((S)-4-acetyl-3-(tetradecylcarbamoyl)piperazin-1-yl)sulfonyl)benzoyl)-N3,N4-bis((1S,2R)-2-phenylcyclopropyl)pyrrolidine-3,4-dicarboxamide]
0.1 to 50 nM | CCCCCCCCCC(=O)N[C@@H](Cc1nnc(-c2ccc(C(=O)N3C[C@@H](C(=O)N[C@H]4C[C@@H]4c4ccccc4)[C@H](C(=O)N[C@H]4C[C@@H]4c4ccccc4)C3)cc2)s1)C(=O)NCCCCCC [Compound 243, (3S,4S)-1-(4-(5-((S)-2-decanamido-3-(hexylamino)-3-oxopropyl)-1,3,4-thiadiazol-2-yl)benzoyl)-N3,N4-bis((1S,2R)-2-phenylcyclopropyl)pyrrolidine-3,4-dicarboxamide]
